We go through 75 compounds from ChEMBL document CHEMBL3988442, “University of Dundee, Small-Polar-MMV Screening Library” (2021).

Assay [1] in a line: microbe, parasite or virus in culture. The note with it: Mycobacterium tuberculosis, 96 h, read-out: pIC50 (converted).
The nature of assay [2]: microbe, parasite or virus in culture. The note with it: Mycobacterium tuberculosis, 72 h, read-out: pIC50 (converted).

`O=C(c1coc(COc2cccc3cnccc23)n1)N1CCSCC1`: the IC50 in assay [1] and in assay [2] was more than 50.1 µM throughout.
Consider `COc1ncc(CN2CCOC(Cc3cccc4ccccc34)C2)cn1` (stereo not given), for which the IC50 in assay [1] and in assay [2] was more than 50.1 µM each time.
`CSc1nccc(N2CCC3(CCCN(Cc4ccc(F)cc4)C3)C2)n1` (stereo not given): the results for the IC50 in assay [1] and in assay [2] were 25.2 µM and 27.2 µM, respectively.
Taken in the same sequence, the figures for `O=C(c1ccc(Cn2cnnn2)cc1)N1CCC(c2ccncc2)CC1` were more than 50.1 µM and more than 50.1 µM.
Taken in the same sequence, the figures for `CCNc1ncc(C(=O)N2CCOC(CCCC(C)C)C2)cn1` (stereo not given) were 43 µM and more than 50.1 µM.
For `Cn1c(-c2ccccc2Cl)nc2cc(C(=O)NC(CO)CO)cnc21`, in that order: more than 50.1 µM and more than 50.1 µM.
For the compound `Cc1cccc(CN2C[C@@H](CN3CCCN(C)CC3)C[C@H](CO)C2)n1`, the IC50 in assay [1] and in assay [2] was more than 50.1 µM each time.
Consider `Cc1cc(N2CCN(C(=O)Cc3ccc4c(c3)OCO4)CC2)cc(C)n1`, for which the IC50 in assay [1] and in assay [2] was more than 50.1 µM in each case.
As to `Cn1nc(CN2CCCN(C3CCCC3)CC2)c2c(Cl)cccc21`, the IC50 in assay [1] is 39.8 µM; in assay [2], 44.8 µM.
As to `CC(C)c1ccc(CN2C(=O)C3(CCNCC3)Nc3ccccc32)cc1`, the IC50 in assay [1] was 22.3 µM; in assay [2], 32 µM.
For `Cc1ccc(-n2cc(CN3CCOCC3)c(-c3cccc(C)c3)n2)cc1`, in that order: more than 50.1 µM and 24.8 µM.
For `O=C(NCc1ccc(CO)cc1)C1CCOc2ccccc2C1` (stereo not given), in that order: 12.2 µM and more than 50.1 µM.
Regarding `CN1CCC(N(C)CCC(=O)N2CCC(CCc3ccccc3)CC2)C1` (stereo not given), the results for the IC50 in assay [1] and in assay [2] were 35.3 µM and 41.5 µM, respectively.
For `c1ccc(-c2cc(CN3C[C@@H]4CC[C@H](C3)N(CC3CC3)C4)on2)cc1`, in that order: 24.8 µM and 24.3 µM.
Taken in the same sequence, the figures for `c1csc(CCNc2nc(-c3ccncc3)nc3c2CCNCC3)c1` were 21.7 µM and 46.2 µM.
On to `CCC(C)Oc1ccc(CNCCNS(C)(=O)=O)cc1Cl` (stereo not given), for which the IC50 in assay [1] and in assay [2] was more than 50.1 µM throughout.
Take `Cc1n[nH]c(C)c1CCNC(=O)C1CCCN(Cc2ccco2)C1` (stereo not given): the IC50 in assay [1] and in assay [2] was more than 50.1 µM in each case.
For `Cc1ccc2nc(-c3cnc(N)nc3)c(C)c(C(=O)N(C)C)c2c1`, the IC50 in assay [1] and in assay [2] was more than 50.1 µM throughout.
Consider `CC(C)CCN1CCNC(=O)C1CC(=O)NCCc1cc(O)ncn1` (stereo not given), for which the IC50 in assay [1] and in assay [2] was more than 50.1 µM each time.
On to `CN(C)CCN(C)c1ccc(-c2nc(COc3ccccc3)no2)cn1`, for which the values for the IC50 in assay [1] and in assay [2] were 14.4 µM and 48.4 µM, respectively.
Take `COc1cccc(-c2noc(-c3ccc(NCCCO)nc3)n2)c1OC`: the IC50 in assay [1] is 21.2 µM; in assay [2], more than 50.1 µM.
For `COCC(=O)N1CCCN(Cc2cc(C(C)C)no2)CC1`, in that order: more than 50.1 µM and more than 50.1 µM.
Taken in the same sequence, the figures for `CCc1ccc(CN2CCOC(Cc3cccc(F)c3)C2)nc1` (stereo not given) were 12.3 µM and 36.3 µM.
For `O=C(NC1CCCN(CCCc2ccccc2)C1)c1ccc(Cl)s1` (stereo not given), in that order: 24.4 µM and 33.6 µM.
Consider `CCCc1nc(C)cc(N2CCC3(CCC(=O)N(CCO)C3)CC2)n1`, for which the IC50 in assay [1] and in assay [2] was more than 50.1 µM in each case.
With `COc1ccc(C(=O)N2CCOC(Cc3cccc(C(F)(F)F)c3)C2)o1` (stereo not given), the IC50 in assay [1] was 10.7 µM; in assay [2], 35.1 µM.
For `CNc1cc(C)nc(NCc2cc(C)cc3c(C)c(C)[nH]c23)n1`, in that order: 35.8 µM and 23.6 µM.
On to `CCc1cn[nH]c1C1CCN(c2cc(C)c3cccc(OC)c3n2)CC1`, for which the IC50 in assay [1] was more than 50.1 µM; in assay [2], 22.2 µM.
`FC(F)Oc1ccccc1CN1CCCC(c2nccn2CC2CC2)C1` (stereo not given): the IC50 in assay [1] and in assay [2] was more than 50.1 µM each time.
Take `Cc1ccc(C(=O)N2CC(Oc3ccccc3C)C2)s1`: the IC50 is 10.7 µM in assay [1] and 8.82 µM in assay [2].
For `CN1CCC(N(C)CCC(=O)N2CCC(Cc3ccc(F)cc3)CC2)C1` (stereo not given), in that order: more than 50.1 µM and 22 µM.
For `CCS(=O)(=O)N1CCC(c2nnc(CN3CCCCCC3)n2C)CC1`, in that order: more than 50.1 µM and more than 50.1 µM.
Taken in the same sequence, the figures for `COc1ccccc1-c1ncc(CN2C[C@@H](N(C)C)[C@H](C(C)C)C2)s1` were 25.4 µM and 31.4 µM.
With `COC(=O)c1ccc(-c2noc(CN(CCO)Cc3cccs3)n2)cc1`, the values for the IC50 in assay [1] and in assay [2] were more than 50.1 µM and 47.5 µM, respectively.
For `Cc1nc2c(c(NCc3nc4ccccc4s3)n1)CCNCC2`, in that order: 45.8 µM and 23.7 µM.
For `O=C(O)c1cc(-c2ccoc2)cc(S(=O)(=O)NC2CC2)c1`, in that order: more than 50.1 µM and more than 50.1 µM.
Turning to `Cc1ccc(CCNc2ncc(C)c(-c3ccnn3C)n2)s1`, the IC50 is more than 50.1 µM in assay [1] and 11.2 µM in assay [2].
For `COc1ccc(-c2noc(CN3CCN(c4cnccn4)CC3)n2)cc1`, in that order: 33.8 µM and 47 µM.
In the case of `Cc1nnsc1CN1C[C@H]2CC[C@@H]1CN(Cc1ccccc1)C2`, the IC50 is 42.5 µM in assay [1] and 13.8 µM in assay [2].
For `CCc1ccccc1OC1CN(C(=O)c2ccsc2)C1`, in that order: more than 50.1 µM and 8.19 µM.
Taken in the same sequence, the figures for `CCN(CC)CCn1cnc(-c2ccccc2)c1-c1ncc[nH]1` were 27.2 µM and more than 50.1 µM.
For `N#Cc1cccc(N2CCCC(CO)(Cc3ccccc3F)C2)n1` (stereo not given), in that order: more than 50.1 µM and 12.6 µM.
With `Cc1nc(N(C)C/C=C/c2ccccc2)c2cnn(C)c2n1`, the IC50 in assay [1] and in assay [2] was more than 50.1 µM each time.
Turning to `COc1cccc2c1OCC(C(=O)N1CCN(C3CCCC3)C(=O)C1)C2` (stereo not given), the IC50 in assay [1] and in assay [2] was more than 50.1 µM in each case.
For the compound `CCOc1ccc(OCc2nccc(-c3cc(C(=O)O)ccn3)n2)cc1`, the IC50 in assay [1] and in assay [2] was more than 50.1 µM throughout.
With `COc1ccc(F)c(-c2cc(C(=O)NC3CC3)ccn2)c1`, the IC50 in assay [1] is 10.6 µM; in assay [2] it was 22.7 µM.
Taken in the same sequence, the figures for `COc1cc(Oc2ncccc2C(F)(F)F)ccc1CN1CCCC1` were 21 µM and more than 50.1 µM.
With `Cc1nn(C)c2ncnc(N(C)CC3CCN(CC(C)C)C3)c12` (stereo not given), the IC50 in assay [1] and in assay [2] was more than 50.1 µM throughout.
On to `CCc1cc(N(C)Cc2ccncn2)n2nc(C)c(C)c2n1`, for which the IC50 in assay [1] is 14.2 µM; in assay [2], 33.8 µM.
Taken in the same sequence, the figures for `CCN(Cc1cnn(C)c1)C[C@H]1CC[C@@H](Cc2cccc(CN)c2)O1` were more than 50.1 µM and more than 50.1 µM.
For `CCOc1ccnc(N[C@@H](Cc2ccccc2)C(N)=O)n1`, in that order: more than 50.1 µM and more than 50.1 µM.
Regarding `CCCc1nc(N2CC[C@@H](c3ccc4c(c3)OCO4)[C@H](O)C2)no1`, the IC50 was more than 50.1 µM in assay [1] and 44.3 µM in assay [2].
Taken in the same sequence, the figures for `c1cc(-c2ccn(CCN3CCCC3)n2)cc(-c2nccs2)c1` were 27.4 µM and 43.6 µM.
Taken in the same sequence, the figures for `Cc1ccccc1OCC1CCCN(c2cc(N)nc(N)n2)C1` (stereo not given) were 30.1 µM and 35.7 µM.
For `O=C(c1cc(COc2ccc3c(c2)OCO3)[nH]n1)N1CCCCO1`, in that order: 17.8 µM and more than 50.1 µM.
`COc1coc(CN2CCCC(CCc3ccc(F)cc3)C2)cc1=O` (stereo not given): the IC50 in assay [1] is 23.1 µM; in assay [2], more than 50.1 µM.
Taken in the same sequence, the figures for `O=C(c1ncoc1C1CC1)N1CCCN(CCCc2ccccc2)CC1` were more than 50.1 µM and more than 50.1 µM.
As to `COc1cccc(-c2noc(-c3ccc(NCC(C)O)nc3)n2)c1OC` (stereo not given), the IC50 in assay [1] is 19.4 µM; in assay [2], more than 50.1 µM.
Taken in the same sequence, the figures for `Fc1ccccc1OC1CCN(CCn2cc3ccccc3n2)CC1` were 47.9 µM and more than 50.1 µM.
For `O=C(CCC(F)(F)F)N1CCCC(CO)(CC2CC2)C1` (stereo not given), in that order: 4.11 µM and 2.54 µM.
Taken in the same sequence, the figures for `Cc1nn2c(NCC(=O)NC3CC3)cc(-c3ccccc3)nc2c1C` were 12.1 µM and 13.4 µM.
In the case of `CC(C)N1CC2(CCCN(Cc3noc(C4CCCC4)n3)C2)CCC1=O` (stereo not given), the IC50 in assay [1] and in assay [2] was more than 50.1 µM throughout.
On to `CCCn1cnnc1-c1nc2c([nH]1)CC(c1ccc(Cl)cc1)CNC2=O` (stereo not given), for which the IC50 in assay [1] is 14.2 µM; in assay [2] it was 17.5 µM.
For `Cc1cnc(NC(C)Cc2cccnc2)nc1N(C)C` (stereo not given), in that order: more than 50.1 µM and more than 50.1 µM.
In the case of `Fc1cccc(OC2CCN(CCn3cc4ccccc4n3)CC2)c1`, the results for the IC50 in assay [1] and in assay [2] were 26.1 µM and more than 50.1 µM, respectively.
For `CCCC1C=CCN1C(=O)c1cc(COc2ccc3c(c2)OCO3)[nH]n1` (stereo not given), in that order: 11.8 µM and more than 50.1 µM.
For `Cc1nn(C)c(C)c1CN(CCO)C(=O)C1COc2ccccc2C1` (stereo not given), in that order: more than 50.1 µM and more than 50.1 µM.
Taken in the same sequence, the figures for `COc1cccc(-c2noc3c2CN(c2nc(C)ncc2C)CC3)c1` were 34.5 µM and 3.39 µM.
As to `Cc1ccc2[nH]c(=O)cc(C(=O)NCCCn3nccc3C3CC3)c2c1`, the IC50 in assay [1] is more than 50.1 µM; in assay [2], 26.1 µM.
For `CCc1ccccc1OCCN(C)C(=O)CN1CCCC1`, in that order: more than 50.1 µM and 39.2 µM.
For `Cc1cccnc1CN(C)C(C(=O)O)c1ccc(-n2cccn2)cc1` (stereo not given), in that order: 20.1 µM and 27 µM.
For `CC(C)c1cc(N(C)Cc2noc(C3CCCC3)n2)n2nccc2n1`, in that order: 15.5 µM and 9.63 µM.
In the case of `CC(=O)Nc1cccc(-c2ccccc2CCN)c1`, the results for the IC50 in assay [1] and in assay [2] were more than 50.1 µM and 49.7 µM, respectively.
As for `COCCc1noc(CNC2CCCC(C)(C)C2)n1` (stereo not given), the values for the IC50 in assay [1] and in assay [2] were more than 50.1 µM and 2.66 µM, respectively.
Taken in the same sequence, the figures for `COc1ccc(CN2CCCC(Nc3cccc(F)c3)C2)cc1O` (stereo not given) were 16.5 µM and 11 µM.
